Source: patent publication US12209143B2, “Versatile peptide and protein macrocyclization and multimerization with diels-alder cycloadditions” (The University of Chicago, priority 2019, dated 2025)
Read-outs that look alike come from different tables or passages of the source.

Experiments:
chymotrypsin = target: T1, chymotrypsin (Bos taurus, UniProt P00766); assay: In vitro chymotrypsin resistance assay; format: in vitro ADME; conditions: 0.5 μg/mL chymotrypsin, 37° C.
T1 construct: purchased Thermo Pierce
Experimental: (§1) DAC protease stability assays. DAC peptide protease degradation kinetics were determined with Thermo Pierce™ MS-Grade Trypsin or Chymotrypsin Protease in PBS or TBS with 5 mM DTT and 2 mM CaCl2. Protease (1 eq) was added to buffer for a final assay concentration of 10 μg/mL trypsin or 0.5 μg/mL chymotrypsin. Each respective reaction mixture was then added to either 1 wt and 1a (2000 eq) or 4 wt and 4a (10,000 eq). Samples were then incubated at 37° C., 1,000 rpm. 5 min, 10 min, 30 min, 2 hr, and 4 hr time points were quenched in an equal volume of 2% TFA/H2O on ice. After 5 min, samples were centrifuged for 2 min at 17,000 rcf to precipitate quenched trypsin. Supernatant solutions were then analyzed and intact peptide quantified by LC-MS or Q-TOF.

trypsin = target: T2, trypsin (Sus scrofa, UniProt P00761); assay: In vitro trypsin resistance assay; format: in vitro ADME; conditions: 10 μg/mL trypsin, 37° C.
T2 construct: purchased Thermo Pierce
T2 sequence (P00761 9-231): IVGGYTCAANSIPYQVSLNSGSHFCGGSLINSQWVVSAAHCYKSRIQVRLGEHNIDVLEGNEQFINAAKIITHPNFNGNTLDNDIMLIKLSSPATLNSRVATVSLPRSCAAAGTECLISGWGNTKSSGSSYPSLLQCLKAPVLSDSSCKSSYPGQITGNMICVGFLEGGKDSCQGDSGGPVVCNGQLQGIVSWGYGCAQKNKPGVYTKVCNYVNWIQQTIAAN
Experimental: as §1

ERα = target: T3, ERα (Homo sapiens, UniProt P03372); assay: Competitive fluorescence polarization (FP) binding assay of DAC-SRC2 peptides
T3 construct: Wildtype and Y537S 6×His-TEV-ERα (residues 300-550) in pET21a(+) was expressed in E. coli BL21(DE3); 6×His-TEV (N, cleaved yes); made in house; host or cells: E. coli BL21(DE3)
T3 sequence (P03372 300-550): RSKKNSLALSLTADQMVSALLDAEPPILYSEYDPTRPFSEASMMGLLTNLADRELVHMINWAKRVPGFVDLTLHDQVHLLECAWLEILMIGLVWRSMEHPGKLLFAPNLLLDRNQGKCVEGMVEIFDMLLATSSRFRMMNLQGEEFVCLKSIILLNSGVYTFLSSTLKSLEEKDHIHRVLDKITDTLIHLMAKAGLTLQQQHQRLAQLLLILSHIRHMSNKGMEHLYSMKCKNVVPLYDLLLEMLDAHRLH
Experimental: Competitive fluorescence polarization (FP) assay. […] Plates were incubated at 4° C. for 1 hr, imaged using standard FP assay settings at 30° C., and data analyzed as previously described.

## Ac-CAVPAVYK-NH2 [4 wt]
chymotrypsin
  degradation by chymotrypsin: degraded more rapidly than 4a

## CC(=O)N[C@H]1CSCC2C=CC(C)C3C(=O)N(CC(=O)NCCCC[C@@H](C(N)=O)NC(=O)[C@H](CC(=O)O)NC(=O)CNC(=O)[C@H](CCCNC(=N)N)NC1=O)C(=O)C23 (some centres unmarked) [1a, CHexRGDKMal]
trypsin
  degradation by trypsin: extended half-life

## CC[C@H](C)[C@H](NC(=O)[C@H](CCCCN)NC(=O)[C@H](Cc1c[nH]cn1)NC(C)=O)C(=O)N[C@@H](CC(C)C)C(=O)N[C@@H](Cc1c[nH]cn1)C(=O)N[C@H]1CCCCNC(=O)CN2C(=O)C3C4C=CC(C[C@@H](C(=O)N[C@@H](CO)C(N)=O)NC(=O)[C@H](CCC(N)=O)NC(=O)[C@H](CC(C)C)NC(=O)[C@H](CC(C)C)NC1=O)(O4)C3C2=O (some centres unmarked) [7a]
ERα; calculated from competitive FP assay, ERα, value (± s.e.m.)
  Ki: 210 nM
ERα; competing a fluorescein-linked SRC2 peptide off of ERα, read-out: IC50 (approximate)
  IC50: ~500 nM
ERα; competitive FP, wildtype ERα, fluorescein-labeled SRC peptide tracer, value (± s.e.m.), read-out: IC50
  IC50: 480 nM
